# Read-outs that look alike come from different tables or passages of the source.
# How the values were obtained:
# [1] = test system: luciferase reporter containing the UAG stop codon; assay: Translational read-through luciferase reporter assay, UAG stop codon; type: cell-based; settings: read-out: MaxFold Increase
# Source text: This assay is described in detail in WO 01/44516 A2. This is a cell-based luciferase reporter assay designed to detect translational read-through via insertion of a translational stop codon within the luciferase coding sequence. In the presence of compounds that promote read-through of translational stop codons, active luciferase is produced and detected via chemiluminescence. We have shown that indoprofen analogs are active in two versions of this assay—one containing a UGA stop codon and one containing a UAG stop codon. The data in the table is from the luciferase reporter containing the UAG stop codon. This is the first stop codon downstream of the improper splice junction between exons 6 and 8 in the human SMN2 transcript.
# [2] = test system: SMN2-linked luciferase-reporter gene construct; assay: SMN splice reporter assay (SMN2-linked luciferase reporter, Example 10); type: cell-based
# Procedure, shortened: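 Values are fold-increase in luciferase signal relative to baseline cells without compound. The cervical carcinoma line used holds a fusion of alternatively spliced SMN2 sequence and luciferase. Readable frame, and thus signal, arises only with exon 7-including splicing.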
# [3] = SMN2-linked luciferase reporter, average
# [4] = SMN2-linked luciferase reporter, average maximum fold increase, read-out: SMN Splice Reporter Assay (Example 10) Avg MaxFold Increase
# [5] = maximum fold increase of reporter signal, average, read-out: SMN Splice Reporter Assay (Example 10) Avg MaxFold Increase
Compound,"EC50 [2, 3] [nM]","maximal fold induction [2, 5]",also measured
CC(C)c1ccc(N2Cc3ccc(O)cc3C2=O)cc1 [ALB-116078],267,,"maximal fold induction [1]: 3.3; maximal fold induction [2, 4]: 1.64"
CCCc1ccc2c(c1)C(=O)N(c1ccc(C(C)C(=O)OC(C)(C)C)cc1)C2 (stereo not shown) [ALB-113213],565,1.23,maximal fold induction [1]: 1.9
COc1ccc2c(c1)C(=O)N(c1ccc(C(C)C(O)OC)cc1)C2 (stereo not shown) [ALB-114441],76,1.67,maximal fold induction [1]: 3.2
CNc1ccc2c(c1)C(=O)N(c1ccc(C(C)C)cc1)C2 [ALB-117046],90,1.44,maximal fold induction [1]: 2.9
CC(C)c1ccc(N2Cc3ccc(Cl)cc3C2=O)cc1 [ALB-116246],31,1.35,maximal fold induction [1]: 2.7
CC(C)c1ccc(N2Cc3ccc(Br)cc3C2=O)cc1 [ALB-114901],193,1.52,maximal fold induction [1]: 2.6
CC(C)c1ccc(N2Cc3cccc(Cl)c3C2=O)cc1 [ALB-117454],470,1.51,maximal fold induction [1]: 3.1
CC(C)c1ccc(N2Cc3ccc(N4CCCC4)cc3C2=O)cc1 [ALB-115715],,1.06,
CCCOc1ccc2c(c1)C(=O)N(c1ccc(C(C)C)cc1)C2 [ALB-116075],188,1.26,
COCC(C)c1ccc(N2Cc3ccc(C)cc3C2=O)cc1 (stereo not shown) [ALB-115072],32,,"SMN Splice Reporter Assay (Example 10) Avg MaxFold Increase ([2]; maximum fold increase of reporter signal, average): 1.28"
CC(C(=O)O)c1ccc(N2Cc3c(cccc3-c3cncnc3)C2=O)cc1 (stereo not shown) [ALB-112353],16000,1.53,
CC(C(=O)OC(C)(C)C)c1ccc(N2Cc3ccc(NS(C)(=O)=O)cc3C2=O)cc1 (stereo not shown) [ALB-111997],175,,"maximal fold induction ([2]; read-out: SMN Splice Reporter Assay (Example 10) Avg MaxFold Increase, maximum fold increase of reporter signal, average, heading: SMN Splice Reporter Assay Avg MaxFold Increase): 1.01"
CC(C(=O)O)c1ccc(N2Cc3ccccc3C2=O)cc1-c1ccc(Cl)cc1 (stereo not shown) [ALB-112329],,1.09,
CC(C(=O)OC(C)(C)C)c1ccc(N2Cc3ccc(N(C)C(=O)c4ccccc4)cc3C2=O)cc1 (stereo not shown) [ALB-112169],,1.07,
CC(C(=O)O)c1ccc(N2Cc3cccc(N)c3C2=O)cc1 (stereo not shown) [ALB-112062a],329,1.41,
CC(C(=O)O)c1ccc(N2Cc3cc(N4CCOCC4)ccc3C2=O)cc1 (stereo not shown) [ALB-112554],,1.06,
Cc1ccc(N2Cc3ccc(OC(F)F)cc3C2=O)cc1 [ALB-119515],146,,"maximal fold induction [2, 4]: 1.46"

Compound,"EC50 [2, 3] [nM]","maximal fold induction [2, 5]",also measured
Cc1cccc2c1C(=O)N(c1ccc(C(C)C(=O)O)cc1)C2 (stereo not shown) [ALB-112557],288,1.73,
CC(C(=O)O)c1ccc(N2Cc3ccc(OCC4CC4)cc3C2=O)cc1 (stereo not shown) [ALB-115500],115,1.54,
CCc1ccc2c(c1)C(=O)N(c1ccc(C(C)C)cc1)C2 [ALB-115713],61,1.37,
CC(C(=O)OC(C)(C)C)c1ccc(N2Cc3ccc(N(C)C(=O)c4ccc(Cl)cc4)cc3C2=O)cc1 (stereo not shown) [ALB-112167],,1.01,
CC(C)(C)c1ccc(N2Cc3ccc(Br)cc3C2=O)cc1 [ALB-115583],184,1.37,
COCC(C)(C)c1ccc(N2Cc3ccc(OC)cc3C2=O)cc1 [ALB-115706],660,1.26,
CC(C(=O)OC(C)(C)C)c1ccc(N2Cc3ccccc3C2=O)c(C#N)c1 (stereo not shown) [ALB-112436],,1.07,
CC(C(=O)O)c1ccc(N2Cc3ccccc3C2=O)cc1-c1ccco1 (stereo not shown) [ALB-112160],,1.02,
CC(C)OCC(C)c1ccc(N2Cc3ccccc3C2=O)cc1 (stereo not shown) [ALB-114935],977,1.26,
CNc1cccc2c1C(=O)N(c1ccc(C(C)C)cc1)C2 [ALB-117905],414,1.55,
C=Cc1ccc2c(c1)CN(c1ccc(C(C)C(=O)OC(C)(C)C)cc1)C2=O (stereo not shown) [ALB-113100],101,1.05,
Cc1ccc(-c2cc(C(C)C(=O)O)ccc2N2Cc3ccccc3C2=O)cc1 (stereo not shown) [ALB-112085.],,1.08,
CC(C(=O)O)c1ccc(N2Cc3cc(N(C)C)ccc3C2=O)cc1 (stereo not shown) [ALB-113646],,1.05,
CC(C(=O)O)c1ccc(N2Cc3cc(F)ccc3C2=O)cc1 (stereo not shown) [ALB-113754],142,1.7,
CCN(CC)c1ccc2c(c1)C(=O)N(c1ccc(C(C)C)cc1)C2 [ALB-116639],121,1.19,
COCCc1ccc(N2Cc3ccc(OC)cc3C2=O)cc1 [ALB-115217],,1.26,
COc1cc2c(cc1OC)C(=O)N(c1ccc(C(C)C(=O)O)cc1)C2 (stereo not shown) [ALB-114437],,1.2,
